Test results: publication PMC7587962, “Evaluation of Cytotoxicity and α-Glucosidase Inhibitory Activity of Amide and Polyamino-Derivatives of Lupane Triterpenoids” (Molecules, 2020)
Read-outs that look alike come from different tables or passages of the source.

Columns and labels:
[1] = test system: T-47D; test: NCI-60 SRB screen: breast cancer T-47D; assay type: cell-based, human; conditions: T-47D
[2] = test system: NCI-H23; test: NCI-60 SRB screen: non-small cell lung cancer NCI-H23; assay type: cell-based, human; conditions: NCI-H23
[3] = test system: SN12C; test: NCI-60 SRB screen: renal cancer SN12C; assay type: cell-based, human
[4] = test system: MOLT-4; test: NCI-60 SRB screen: leukemia MOLT-4; assay type: cell-based; conditions: Homo sapiens, 48 h, MOLT-4
[5] = test system: CAKI-1; test: NCI-60 SRB screen: renal cancer CAKI-1; assay type: cell-based, human; conditions: CAKI-1
[6] = test system: UACC-62; test: NCI-60 SRB screen: melanoma UACC-62; assay type: cell-based, human; conditions: UACC-62
[7] = test system: SF-268; test: NCI-60 SRB screen: CNS cancer SF-268; assay type: cell-based, human; conditions: SF-268
[8] = test system: OVCAR-8; test: NCI-60 SRB screen: ovarian cancer OVCAR-8; assay type: cell-based, human; conditions: OVCAR-8
[9] = test system: K-562; test: NCI-60 SRB screen: leukemia K-562; assay type: cell-based, human; conditions: K-562
[10] = test system: Ovarian Cancer subpanel; test: NCI-60 screen, subpanel Ovarian Cancer
[11] = test system: 786-0; test: NCI-60 SRB screen: renal cancer 786-0; assay type: cell-based, human; conditions: 786-0
[12] = test system: HL-60(TB); test: NCI-60 SRB screen: leukemia HL-60(TB); assay type: cell-based; conditions: Homo sapiens, 48 h, HL-60(TB)
[13] = test system: 60 human tumor cell lines; test: cells
[14] = test system: PC-3; test: NCI-60 SRB screen: prostate cancer PC-3; assay type: cell-based, human; conditions: PC-3
[15] = test system: NCI-H522; test: NCI-60 SRB screen: non-small cell lung cancer NCI-H522; assay type: cell-based, human; conditions: NCI-H522
[16] = test system: MDA-MB-468; test: NCI-60 SRB screen: breast cancer MDA-MB-468; assay type: cell-based, human
[17] = test system: ACHN; test: NCI-60 SRB screen: renal cancer ACHN; assay type: cell-based, human
[18] = test system: HS 578T; test: NCI-60 SRB screen: breast cancer HS 578T; assay type: cell-based, human; conditions: HS 578T
[19] = test system: RPMI-8226; test: NCI-60 SRB screen: leukemia RPMI-8226; assay type: cell-based; conditions: Homo sapiens, 48 h, RPMI-8226
[20] = test system: M14; test: NCI-60 SRB screen: melanoma M14; assay type: cell-based, human; conditions: M14
[21] = test system: MDA-MB-435; test: NCI-60 SRB screen: melanoma MDA-MB-435; assay type: cell-based, human; conditions: MDA-MB-435
[22] = test system: Melanoma subpanel; test: NCI-60 screen, subpanel Melanoma
[23] = test system: NCI-H460; test: NCI-60 SRB screen: non-small cell lung cancer NCI-H460; assay type: cell-based; conditions: Homo sapiens, 48 h, NCI-H460
[24] = test system: LOX IMVI; test: NCI-60 SRB screen: melanoma LOX IMVI; assay type: cell-based, human
[25] = test system: SNB-75; test: NCI-60 SRB screen: CNS cancer SNB-75; assay type: cell-based, human; conditions: SNB-75
[26] = test system: OVCAR-4; test: NCI-60 SRB screen: ovarian cancer OVCAR-4; assay type: cell-based; conditions: Homo sapiens; OVCAR-4; five concentrations, 48 h, SRB; read-out: GI50
[27] = test system: OVCAR-5; test: NCI-60 SRB screen: ovarian cancer OVCAR-5; assay type: cell-based, human; conditions: OVCAR-5
[28] = test system: SK-OV-3; test: NCI-60 SRB screen: ovarian cancer SK-OV-3; assay type: cell-based, human; conditions: SK-OV-3
[29] = test system: SF-539; test: NCI-60 SRB screen: CNS cancer SF-539; assay type: cell-based, human; conditions: SF-539
[30] = test system: SK-MEL-28; test: NCI-60 SRB screen: melanoma SK-MEL-28; assay type: cell-based, human; conditions: SK-MEL-28
[31] = test system: BT-549; test: NCI-60 SRB screen: breast cancer BT-549; assay type: cell-based, human; conditions: BT-549
[32] = test system: A549/ATCC; test: NCI-60 SRB screen: non-small cell lung cancer A549/ATCC; assay type: cell-based, human; conditions: A549/ATCC
[33] = test system: OVCAR-3; test: NCI-60 SRB screen: ovarian cancer OVCAR-3; assay type: cell-based, human; conditions: OVCAR-3
[34] = test system: MCF7; test: NCI-60 SRB screen: breast cancer MCF7; assay type: cell-based; conditions: Homo sapiens, 48 h, MCF7
[35] = Homo sapiens, five concentrations, 48 h, SRB, read-out: GI50
[36] = single dose 10 µM, read-out: Percentage Cell Growth
[37] = five concentrations, SRB, read-out: GI50

With `C=C(C)[C@@H]1CC[C@]2(C(=O)NCCCN)CC[C@]3(C)[C@H](CC[C@@H]4[C@@]5(C)CCC(=O)C(C)(C)[C@@H]5CC[C@]43C)[C@@H]12` [Compound 10] the GI50 ([1]; Homo sapiens, T47D, five concentrations, 48 h, SRB, read-out: GI50) was 13.1 µM, the “Percentage Cell Growth” value ([1]; single dose 10 µM) was −12.76% and the GI50 [2, 35] was 22.6 µM. For the same compound, the “Percentage Cell Growth” value ([2]; single dose 10 µM) was −8.47%, the GI50 [3, 35] was 20.8 µM and the “Percentage Cell Growth” value ([3]; single dose 10 µM) was −34.74%. The activity at 10 µM [4, 36] was 2.76%, the GI50 [4, 37] was 12.9 µM and the “Percentage Cell Growth” value ([5]; single dose 10 µM) was −54.52%. For the same compound, the GI50 [5, 35] was 21.9 µM, the GI50 [6, 35] was 27.4 µM and the “Percentage Cell Growth” value ([6]; single dose 10 µM) was −22.62%. For the same compound, the GI50 [7, 35] was 23 µM, the “Percentage Cell Growth” value ([7]; single dose 10 µM) was −16.88% and the GI50 [8, 35] was 27.7 µM. The “Percentage Cell Growth” value ([8]; single dose 10 µM) was −3.81%, the GI50 ([9]; Homo sapiens, K562, five concentrations, 48 h, SRB, read-out: GI50) was 9.84 µM and the “Percentage Cell Growth” value ([9]; single dose 10 µM) was 1.10%. The “MID b, average sensitivity of all cell line of particular subpanel” value [10] was 24.63 µM, the “Selectivity, ratio MID a: MID b” value [10] was 0.83 and the “Percentage Cell Growth” value ([11]; single dose 10 µM) was −22.61%. For the same compound, the GI50 [11, 35] was 23.2 µM, the activity at 10 µM [12, 36] was 1.25% and the GI50 [12, 37] was 16.5 µM. The GI50 ([13]; read-out: GI50 ranges against all panels of NCI60) was 6.95 to 38.9 µM, the GI50 ([13]; read-out: MID a, average sensitivity of all cell line (GI50-MID)) was 20.5 µM and the GI50 [14, 35] was 12.6 µM. The “Percentage Cell Growth” value ([14]; single dose 10 µM) was −53.78%, the GI50 [15, 35] was 21 µM and the “Percentage Cell Growth” value ([15]; single dose 10 µM) was −16.98%. For the same compound, the GI50 [16, 35] was 12.6 µM, the “Percentage Cell Growth” value ([16]; single dose 10 µM) was −19.87% and the GI50 [17, 35] was 21.7 µM. For the same compound, the “Percentage Cell Growth” value ([17]; single dose 10 µM) was −49.24%, the “Percentage Cell Growth” value ([18]; single dose 10 µM) was −4.98% and the GI50 [18, 35] was 40.5 µM. The activity at 10 µM [19, 36] was -6.66%, the GI50 [19, 37] was 17.2 µM and the GI50 [20, 35] was 24.7 µM. For the same compound, the “Percentage Cell Growth” value ([20]; single dose 10 µM) was 5.07%, the GI50 [21, 35] was 28.7 µM and the “Percentage Cell Growth” value ([21]; single dose 10 µM) was −32.41%. The “MID b, average sensitivity of all cell line of particular subpanel” value [22] was 24.33 µM, the “Selectivity, ratio MID a: MID b” value [22] was 0.84 and the activity at 10 µM [23, 36] was -43.2%. For the same compound, the GI50 [23, 37] was 14 µM, the GI50 [24, 35] was 25.5 µM and the “Percentage Cell Growth” value ([24]; single dose 10 µM) was 1.37%. For the same compound, the GI50 [25, 35] was 32.1 µM, the “Percentage Cell Growth” value ([25]; single dose 10 µM) was −51.56% and the GI50 [26] was 25.6 µM. For the same compound, the GI50 [27, 35] was 14.8 µM, the “Percentage Cell Growth” value ([27]; single dose 10 µM) was −47.68% and the GI50 [28, 35] was 17.7 µM. For the same compound, the “Percentage Cell Growth” value ([28]; single dose 10 µM) was −27.22%, the GI50 [29, 35] was 17.9 µM and the “Percentage Cell Growth” value ([29]; single dose 10 µM) was −36.20%. The GI50 [30, 35] was 22.1 µM, the “Percentage Cell Growth” value ([30]; single dose 10 µM) was −31.42% and the “Percentage Cell Growth” value ([31]; single dose 10 µM) was −2.14%. The GI50 [31, 35] was 23.8 µM, the “Percentage Cell Growth” value ([32]; single dose 10 µM) was −4.70% and the GI50 [32, 35] was 19.6 µM. The GI50 [33, 35] was 15.7 µM, the “Percentage Cell Growth” value ([33]; single dose 10 µM) was −45.89% and the activity at 10 µM [34, 36] was -8.46%. The GI50 [34, 37] was 10.7 µM.
